pEC50: −log10 of the molar value.
These compounds were tested against T1, Human GLP-1R (Homo sapiens, UniProt P43220) (assay: EC20 GLP-1(9-36) PAM cAMP assay: dose response of compound in the presence of fixed concentration of GLP-1(9-36)). Conditions: Human GLP-1R CRE-bla CHO-K1 cells, 60 nM GLP-1(9-36), 30 minutes at 37° C.
T1 construct: expressed in transfected cells; host or cells: CRE-bla CHO-K1 (Chinese hamster ovary) cells
Type: cell-based
Protocol: EC20GLP-1(9-36) PAM cAMP Assay: Dose Response of Compound in the Presence of Fixed Concentration of GLP-1 (9-36)
Human GLP-1R CRE-bla CHO-K1 cells were cultured in growth medium (DMEM-High glucose, 10% dialyzed FBS, 0.1 mM NEAA, 25 mM Hepes, 100 U/mL penicillin/100 μg/mL streptomycin, 5 μg/mL Blasticidin, 600 μg/mL Hygromycin), trypsinized and plated in suspension into 384-well white flat bottom plates at 5000 cells/well in 12 μL assay buffer (Hank's Balanced Salt Solution, 10 mM Hepes, 0.1% BSA, pH 7.4). Each compound at a 5× concentration was diluted to a final concentration range of 10 to 0.01 μM (11 points) in assay buffer containing 1.5 mM IBMX and 4% DMSO. GLP-1(9-36) was diluted from 4.2 μM (30 x) to a final assay concentration of 60 nM in assay buffer containing 1.5 mM IBMX and 4% DMSO. Each compound concentration (5×) was added (3 μL), followed by 0.5 μL of GLP-1(9-36) and cells incubated for 30 minutes at 37° C. The peptide was added to the wells using siliconized tips. The reaction was stopped and levels of cAMP were quantified using the DiscoverX HitHunter cAMP kit according to the manufacturer's instructions and luminescence was detected using a SpectraMax M5 Multi-Mode Microplate reader. Luminescence was converted to total cAMP using a cAMP standard curve and data were analyzed by non-linear regression to determine the EC50 and Emax for each compound.

T1 sequence (P43220 24-463): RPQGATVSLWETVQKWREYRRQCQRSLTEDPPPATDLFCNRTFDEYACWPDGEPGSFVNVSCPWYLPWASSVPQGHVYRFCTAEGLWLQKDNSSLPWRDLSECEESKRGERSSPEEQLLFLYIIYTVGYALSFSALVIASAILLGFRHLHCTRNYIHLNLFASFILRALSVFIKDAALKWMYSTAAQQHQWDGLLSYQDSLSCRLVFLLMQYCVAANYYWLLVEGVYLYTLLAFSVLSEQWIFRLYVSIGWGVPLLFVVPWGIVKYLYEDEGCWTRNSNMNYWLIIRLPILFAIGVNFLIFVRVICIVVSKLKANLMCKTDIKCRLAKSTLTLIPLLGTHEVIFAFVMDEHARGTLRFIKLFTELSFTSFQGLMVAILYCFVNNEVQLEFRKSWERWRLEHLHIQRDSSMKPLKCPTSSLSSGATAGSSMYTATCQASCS

Q: How did the pEC50 turn out when `CC[C@H]1CC[C@H](C2CC=C(c3cnc(-c4ccc(CN(CC(=O)N5CC[C@H](C(=O)O)C5)C(=O)c5ccc(NC(=O)Cc6ccc(OC)cc6C(F)(F)F)cc5)cc4)nc3)CC2)CC1` (stereo partly drawn) [Compound 15] was run?
A: > 6.10

Q: With `COc1ccc(CC(=O)Nc2ccc(C(=O)N(CC(=O)O)Cc3ccc(-c4ncc(C5=CCC(C(C)(C)C)CC5)cn4)cc3)cc2)c(C(F)(F)F)c1` (stereo not drawn) [Compound 77] as the compound, how does the pEC50 read?
A: 5.30 to 5.60

Q: How did the pEC50 turn out when `COc1ccc(CC(=O)Nc2ccc(C(=O)N(CC(=O)O)Cc3ccc(-c4cnc(C5=CCC(C(C)C)CC5)cn4)cc3)cc2)cc1` (stereo not drawn) [Compound 88] was run?
A: 5.60 to 6.10

Q: `CC[C@H]1CC[C@H](C2CC=C(c3cnc(-c4ccc(CN(CC(=O)O)C(=O)c5ccc(NC(=O)CCc6ccc(OC)cc6)cc5)cc4)nc3)CC2)CC1` (stereo partly drawn) [Compound 93] was tested. Which pEC50 did it give?
A: > 6.10

Q: How did the pEC50 turn out when `CC[C@H]1CC[C@@H]([C@@H]2CC=C(c3cnc(-c4ccc(CN(CC(=O)O)C(=O)CNC(=O)Cc5ccc(OC)cc5)cc4)nc3)CC2)CC1` [Compound 118] was run?
A: 5.60 to 6.10

Q: With `CC[C@H]1CC[C@H](C2CC=C(c3cnc(-c4ccc(CN(CC(=O)O)C(=O)CCC(=O)CN5c6cccc7cccc(c67)S5(=O)=O)cc4)nc3)CC2)CC1` (stereo partly drawn) [Compound 127] as the compound, how does the pEC50 read?
A: > 6.10

Reference: patent publication US11530205B2, “GLP-1 receptor modulators” (RECEPTOS LLC, priority 2017, dated 2022)
